Target: T1, PAR1 (Homo sapiens, UniProt P25116)
T1 construct: endogenous in cells; host or cells: washed platelets from blood of healthy volunteers
T1 sequence (P25116 22-425): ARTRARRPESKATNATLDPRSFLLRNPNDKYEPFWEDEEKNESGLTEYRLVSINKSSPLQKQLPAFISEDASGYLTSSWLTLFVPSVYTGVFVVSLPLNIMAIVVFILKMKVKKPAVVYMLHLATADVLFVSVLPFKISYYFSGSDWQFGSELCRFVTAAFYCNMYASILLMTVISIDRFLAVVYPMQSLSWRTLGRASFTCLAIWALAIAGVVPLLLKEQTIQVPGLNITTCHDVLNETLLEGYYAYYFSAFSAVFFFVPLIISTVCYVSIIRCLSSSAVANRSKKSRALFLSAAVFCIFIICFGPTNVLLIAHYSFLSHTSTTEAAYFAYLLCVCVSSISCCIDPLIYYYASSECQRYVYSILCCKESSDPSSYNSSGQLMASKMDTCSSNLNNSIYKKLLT
Experiment: Inhibition of PAR1-mediated platelet aggregation induced by TRAP (thrombin receptor-activating peptide), washed platelets, 96-well format
Type: cell-based
Settings: TRAP-induced aggregation of platelets from healthy volunteers; 30 min preincubation at RT; AUC of kinetics at 650 nm, 37° C., 20 minutes
Procedure: PAR1 Determination Method: Inhibition of PAR1-Mediated Platelet Aggregation
The pharmacological testing of the substances took place in platelet aggregation induced by TRAP (thrombin receptor-activating peptide) in 96-well format. For this purpose, blood was taken from healthy volunteers in 20 ml syringes containing 2 ml of 3.13% strength sodium citrate solution. After centrifugation at 150×g for 20 minutes, the platelet-rich plasma (PRP) was separated off and mixed with 1 μl of PGE1 solution (500 μg/ml in ethanol)/ml of PRP. Incubation at RT for 5 minutes was followed by centrifugation at 120×g for 15 minutes to remove the leukocytes. The leukocyte-free PRP was transferred in 5 ml portions into 15 ml PP tubes and centrifuged at 360×g for 15 minutes in order to pellet the platelets. The plasma was then decanted off and the platelet sediment from 5 ml of PRP was resuspended in 1 ml of Tyrode's (120 mM NaCl, 2.6 mM KCl, 12 mM NaHCO3, 0.39 mM NaH2PO4×H2O, 10 mM HEPES, 0.35% BSA (Bovine Serum Albumin), 5.5 mM glucose, pH 7.4) and adjusted with Tyrode's to a platelet count of 3×10^5/microliter (μl). 13 ml of this cell suspension were then mixed with 866 μl of 10 mM CaCl2 solution, and 120 μl thereof were pipetted into each well of a 96-well plate containing 15 μl of the substance to be tested. After incubation at RT in the dark for 30 minutes, 15 μl of a TRAP solution (70-100 μM) were added as agonist, and kinetics were recorded at 650 nm in a SpectraMax 340 at 37° C. for 20 minutes while shaking. The areas under the curves of negative control (Tyrode's/DMSO) and positive control (15 μl of agonist DMSO) were calculated and the difference was fixed as the 100% value. The substances to be tested were pipetted as serial dilutions in duplicate determination, the AUC was likewise determined for each substance concentration, and the % inhibition of the AUC compared with the control was calculated. On the basis of the % inhibition, the IC50 was calculated by nonlinear regression analysis according to the 4-parameter equation.

| SMILES | IC50 [µM] |
| --- | --- |
| CN1C(=O)[C@@H]2[C@H](C1=O)[C@H](/C=C/c1ccc(-c3ccccc3Cl)cn1)N1CCCC[C@@H]21 (racemic) [Example 20, 4-{(E)-2-[5-(2-Chlorophenyl)pyridin-2-yl]vinyl}-2-methyloctahydropyrrolo[3,4-a]-indolizine-1,3-dione] | 0.26 |
| COc1ccccc1-c1ccc(/C=C/[C@H]2[C@H]3C(=O)N(C)C(=O)[C@H]3[C@@H]3CCCCN23)nc1 (racemic) [Example 19, 4-{(E)-2-[5-(2-Methoxyphenyl)pyridin-2-yl]vinyl}-2-methyloctahydropyrrolo[3,4-a]-indolizine-1,3-dione] | 4.09 |
| CN1C(=O)C2C(C1=O)C1C[C@H](O)CN1C2/C=C/c1ccc(-c2cccc(F)c2)cn1 (mixture of isomers) [11 (Fr. 2), (S)-4-{(E)-2-[5-(3-Fluorophenyl)pyridin-2-yl]vinyl}-7-hydroxy-2-methylhexahydropyrrolo[3,4-a]pyrrolizine-1,3-dione] | 15.8 |
| CN1C(=O)[C@@H]2[C@H](C1=O)[C@H](/C=C/c1ccc(-c3cccc(C(F)(F)F)c3)cn1)N1CCCC[C@@H]21 (racemic) [Example 18, 2-Methyl-4-{(E)-2-[5-(3-trifluoromethylphenyl)pyridin-2-yl]vinyl}octahydropyrrolo[3,4-a]indolizine-1,3-dione] | 3.23 |
| CCN1C(=O)C2C(C1=O)C1CCCCN1C2/C=C/c1ccc(-c2cccc(F)c2)cn1 (racemic) [14 (Fr. 3), 2-Ethyl-4-{(E)-2-[5-(3-fluorophenyl)pyridin-2-yl]vinyl}octahydropyrrolo[3,4-a]indolizine-1,3-dione] | 3.68 |
| CN1C(=O)C2C(C1=O)C1COCCN1C2/C=C/c1ccc(-c2cccc(F)c2)cn1 (racemic) [13 (Fr. 3), 6-{(E)-2-[5-(3-Fluorophenyl)pyridin-2-yl]vinyl}-8-methylhexahydropyrrolo[3′,4′:3,4]pyrrolo[2,1-c][1,4]oxazine-7,9-dione] | 7.1 |
